EP1374909A2, “Evaluation of, delivery of, and use of agents to treat heart disorders” (THE GENERAL HOSPITAL CORPORATION, priority 1997, dated 1999)

System: neonatal cardiomyocytes
Assay: Intracellular Ca2+ measurements (fura 2) and cell shortening detection
Assay type: cell-based, rats
Settings: maximal isoproterenol stimulation; uninfected and Ad.RSV.PL-infected (10 pfu/cell) cardiomyocytes, 1 Hz
Experimental: Spontaneously beating cardiomyocytes were prepared from 1 to 2 day old rats and cultured in P-10 medium (GIBCO,BRL) in the presence of 5% fetal calf serum and 10% horse serum for 3 days as described previously in Kang J.X. et al., Proc. Natl. Acad. Sci. U.S.A., 1995, 92:[…] and Kang J.X. and Leaf A., Euro. J. Pharmacol., 1996, 297:97-106, the contents of which are incorporated herein by reference. Measurements of cell shortening and cytosolic Ca^2+ were performed on neonatal cardiomyocytes cultured on round, coated, glass coverslips (0.1 mm thickness, 31 mm diameter) in 35 mm culture dishes. Cells were counted using a hemocytometer. Approximately 5x10^5 cells were plated in each coverslip.
Measurements of intracellular Ca^2+ and cell shortening were performed as described earlier in Hajjar et al. (1997), Kang et al. (1995) and Kang et al (1996), the contents of which are incorporated herein by reference. […] A dual excitation spectrofluorometer (IONOPTIX) was used to record fluorescence emissions (505 nm) elicited from exciting wavelengths of 360 and 380 nm. […] High-contrast microspheres attached to the cell surface of the cardiomyocytes were imaged using a charge-coupled device video camera attached to the microscope, and motion along a selected raster line segment who quantified by a video motion detector system (IONOPTIX).

## CC(C)NCC(O)c1ccc(O)c(O)c1 (stereo not shown) [isoproterenol]
  time course of the Ca^2+ transients: decreased to the same level
